One block for each substance: values may come before it.
Columns and labels:
[1] = biological target: T1, canine MC5R (Canis lupus familiaris, UniProt A0A8I3MI44); assay: Whole cell binding assay with radiolabeled NDP-MSH in transfected HEK293a cells; parameters: expressed in transfected cells; host or cells: HEK293 / HEK293a; details: 75 pM label, 37° C., 1 hour; clones nos. 9 and 13; FIG. 5
Protocol: Transient transfection & Whole Cell Binding Assay. A 50% confluent cell culture plate containing HEK293 cells is used for transient transfection with various vector constructs using Fugene 6 as a transfection carrier (4 μl Fugene 6 per μg plasmid DNA). Cells are harvested 48 hours post transfection using Sigma dissociation buffer (Sigma Chemical Co., St. Louis, Mo.), then centrifuged and resuspended in binding buffer (50 mM HEPES, 5 mM MgCl, 0.1% BSA, pH 7.5, containing a Sigma P-8340 protease inhibitor cocktail). The resuspended cell population is counted using a hemacytometer. A cell volume titration is performed by pipetting varying volumes in triplicate into tubes. Either buffer or excess cold NDP-MSH (2 μM final conc.) is added. Excess cold NDP-MSH is used to ascertain non-specific binding. Radiolabeled (^125I) NDP-MSH is added such that the final concentration is 75 pM. The reaction is incubated at 37° C. for 1 hour, and then the reaction mixture is centrifuged at 5000×g for 10 minutes. The supernatant solution is removed by aspiration and radioisotope remaining with the cell pellet is counted in a gamma counter. FIG. 5 discloses the specific NDP-MSH binding to five canine MC5R/HEK293a cells (shown as “C5#_” in FIG. 5).

[2] = biological target: canine melanocortin 5 receptor (canine); assay: cell-based or functional assay
[3] = biological target: T1, canine MC5R
Protocol: The following example discloses the measurement of canine MC5R-mediated cAMP accumulation in response to α-MSH stimulation.
As described above, MC5R, when activated by its agonist ligand, stimulates adenylyl cyclase to form cAMP. A commercially available kit (Adenylyl Cyclase Activation Flashplate Assay, NEN® Life Science Products, Inc., Boston, Mass., Cat # SMP004, SMP004A) is used to measure cAMP accumulation. An MC5R/HEK293 cell line is prepared. Cells are harvested using Sigma dissociation buffer, washed, centrifuged and resuspended in stimulation buffer, which is provided in the kit (Sigma Chemical Co., St. Louis, Mo.). The suspended cells are counted using a hemacytometer. Cells are pelleted again by centrifugation and resuspended with stimulation buffer to the desired concentration (0.5-5×10^6 cells per ml). A cell volume titration is performed by transferring varying volumes in triplicate into wells. For each cell concentration tested, a full agonist dose titration is performed, including a negative control. The agonists employed include [Nle^4,D-Phe^7]-α-MSH(NDP-MSH) and α-MSH. […]
The duration of stimulation by agonist is also varied (15-45 minutes). […] Stimulation of MC5R is determined by scillintation counting in a Wallac MICROBETA® scintillation counter (EG&G Wallac, Gaithersburg, Md.).

T1 sequence (A0A8I3MI44 1-325): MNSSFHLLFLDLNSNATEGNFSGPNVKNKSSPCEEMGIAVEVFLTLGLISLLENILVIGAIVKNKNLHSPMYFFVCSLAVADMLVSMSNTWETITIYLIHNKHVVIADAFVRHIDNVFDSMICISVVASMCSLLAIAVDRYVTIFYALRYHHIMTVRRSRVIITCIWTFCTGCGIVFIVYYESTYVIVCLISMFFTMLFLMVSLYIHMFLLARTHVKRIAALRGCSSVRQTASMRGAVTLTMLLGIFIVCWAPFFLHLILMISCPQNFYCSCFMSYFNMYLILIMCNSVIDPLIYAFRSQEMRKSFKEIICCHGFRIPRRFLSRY
canine melanocortin 5 receptor (canine), sequence (chain, as listed by the source limits assumed): as the sequence (A0A8I3MI44 1-325) above, with H100Y, G314A counted along it

- specific binding of radiolabeled (125I) NDP-MSH to canine MC5R/HEK293a cells [1]: high level of specific binding
Substance: [Nle4,D-Phe7]-α-MSH [NDP-MSH]

- EC50 of cAMP accumulation (Adenylyl Cyclase Activation Flashplate Assay), clone C9 [2]: 5 nM
- fold stimulation of cAMP accumulation [2]: < 8 fold
Substance: α-melanocyte stimulating hormone (from UniProt P01189 138-150) (peptide)

Substance: α-melanocyte stimulating hormone [α-MSH]
- sensitivity of MC5R clones to α-MSH compared with a MC4R clone ([3]; both MC5R clones versus a MC4R clone): more sensitive
- stimulation of cAMP accumulation with α-MSH ([3]; three clones, FIG. 6): ≤ 8 fold
